Experimental data taken from PubChem BioAssay AID1963864 (Molecular Pharmacology Branch, DTP, NCI, 2024).

Tested on: KRAS PDC multicell spheroid viability
Experiment: Anticancer human tumor 521955-158-R6-J3-PDC patient-derived pancreatic carcinoma cell line growth inhibition [KRAS2]
Conditions: for viability, T/C: stronger effect = lower value
Summary of the method: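 KRAS-mutant tumor cells were grown as spheroids with HUVEC endothelial cells and human MSCs as stroma. Targeted agents were tested alone and with KRAS pathway inhibitors. Doses started at or near clinical Cmax, or 10 microM, descending half-log.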

[1] = curve of first compound, second compound 0.1 µM
[2] = curve of first compound, second compound 0.316 µM
[3] = curve of first compound, second compound 1 µM
[4] = curve of first compound, second compound 3.16 µM
[5] = curve of first compound, second compound 10 µM
[6] = second compound 0.1 µM, first compound 0.0316 µM
[7] = second compound 0.1 µM, first compound 0.1 µM
[8] = second compound 0.1 µM, first compound 0.316 µM
[9] = second compound 0.1 µM, first compound 1 µM
[10] = second compound 0.1 µM, first compound 3.16 µM
[11] = second compound 0.1 µM, first compound 10 µM
[12] = second compound 0.316 µM, first compound 0.0316 µM
[13] = second compound 0.316 µM, first compound 0.1 µM
[14] = second compound 0.316 µM, first compound 0.316 µM
[15] = second compound 0.316 µM, first compound 1 µM
[16] = second compound 0.316 µM, first compound 3.16 µM
[17] = second compound 0.316 µM, first compound 10 µM
[18] = second compound 1 µM, first compound 0.0316 µM
[19] = second compound 1 µM, first compound 0.1 µM
[20] = second compound 1 µM, first compound 0.316 µM
[21] = second compound 1 µM, first compound 1 µM
[22] = second compound 1 µM, first compound 3.16 µM
[23] = second compound 1 µM, first compound 10 µM
[24] = second compound 3.16 µM, first compound 0.0316 µM
[25] = second compound 3.16 µM, first compound 0.1 µM
[26] = second compound 3.16 µM, first compound 0.316 µM
[27] = second compound 3.16 µM, first compound 1 µM
[28] = second compound 3.16 µM, first compound 3.16 µM
[29] = second compound 3.16 µM, first compound 10 µM
[30] = second compound 10 µM, first compound 0.0316 µM
[31] = second compound 10 µM, first compound 0.1 µM
[32] = second compound 10 µM, first compound 0.316 µM
[33] = second compound 10 µM, first compound 1 µM
[34] = second compound 10 µM, first compound 3.16 µM
[35] = second compound 10 µM, first compound 10 µM
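Also: drug exposure lasted seven days.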
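For viability, T/C in this document: 100% = DMSO vehicle wells and lower means fewer viable cells.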

Structure (SMILES)	IC50 [1] [µM]	IC50 [2] [µM]	IC50 [3] [µM]	IC50 [4] [µM]	IC50 [5] [µM]	viability, T/C [6] [%]	viability, T/C [7] [%]	viability, T/C [8] [%]	viability, T/C [9] [%]	viability, T/C [10] [%]	viability, T/C [11] [%]	viability, T/C [12] [%]	viability, T/C [13] [%]	viability, T/C [14] [%]	viability, T/C [15] [%]	viability, T/C [16] [%]	viability, T/C [17] [%]	viability, T/C [18] [%]	viability, T/C [19] [%]	viability, T/C [20] [%]	also measured
CC(C)NCC(C(=O)N1CCN(c2ncnc3c2C(C)CC3O)CC1)c1ccc(Cl)cc1 (configuration not stated) + CC1OCC2(CCN(c3cnc(Sc4ccnc(N)c4Cl)c(N)n3)CC2)C1N	> 10	> 10	> 10	1.35	0.643	86.9	77.1	68.8	68.7	61.7	56	84.3	71.4	61.1	63.5	60.2	48.9	78.1	74.6	60.7	viability, T/C [21]: 54.7%; viability, T/C [22]: 50.9%; viability, T/C [23]: 51.7%; viability, T/C [24]: 86.9%; viability, T/C [25]: 78.7%; viability, T/C [26]: 59.7%; viability, T/C [27]: 53%; viability, T/C [28]: 47.5%; viability, T/C [29]: 43.3%; viability, T/C [30]: 102%; viability, T/C [31]: 73.8%; viability, T/C [32]: 56.7%; viability, T/C [33]: 43.9%; viability, T/C [34]: 44.2%; viability, T/C [35]: 34.1%
CC1(C)CCC(CN2CCN(c3ccc(C(=O)NS(=O)(=O)c4ccc(NCC5CCOCC5)c([N+](=O)[O-])c4)c(Oc4cnc5[nH]ccc5c4)c3)CC2)=C(c2ccc(Cl)cc2)C1 + C=CC(=O)N1CCN(c2nc(=O)n(-c3c(C)ccnc3C(C)C)c3nc(-c4c(O)cccc4F)c(F)cc23)C(C)C1	5.94	7.34	4.83	6.49	2.96	89.3	98.8	97.1	93.2	72.2	31.6	113	112	101	102	77.5	39.5	111	104	106	viability, T/C [21]: 95.8%; viability, T/C [22]: 65.4%; viability, T/C [23]: 23.4%; viability, T/C [24]: 91.9%; viability, T/C [25]: 93.5%; viability, T/C [26]: 95.2%; viability, T/C [27]: 92.1%; viability, T/C [28]: 67.2%; viability, T/C [29]: 39.6%; viability, T/C [30]: 89.2%; viability, T/C [31]: 104%; viability, T/C [32]: 88.7%; viability, T/C [33]: 73.5%; viability, T/C [34]: 49.8%; viability, T/C [35]: 25.7%
COc1cc(OC)cc(N(CCNC(C)C)c2ccc3ncc(-c4cnn(C)c4)nc3c2)c1																					viability, T/C (compound 0.0316 µM): 96% [middle of 4 runs]; viability, T/C (compound 0.1 µM): 96.3% [middle of 4 runs]; viability, T/C (compound 0.316 µM): 96.1% [middle of 4 runs]; viability, T/C (compound 1 µM): 94% [middle of 4 runs]; viability, T/C (compound 3.16 µM): 110% [middle of 4 runs]; viability, T/C (compound 10 µM): 7.96% [middle of 4 runs]; IC50 (curve of compound): 5.96 µM [middle of 4 runs]
CC1OCC2(CCN(c3cnc(Sc4ccnc(N)c4Cl)c(N)n3)CC2)C1N (configuration not stated) + COc1cc2nc(C)nc(NC(C)c3cc(N)cc(C(F)(F)F)c3)c2cc1OC1CCOC1	> 10	> 10	> 10	> 10	< 0.0316	90.6	82.6	74.8	86.5	116	114	82.6	86.1	96.8	87.5	112	118	78	82.1	85	viability, T/C [21]: 83.7%; viability, T/C [22]: 103%; viability, T/C [23]: 124%; viability, T/C [24]: 76.5%; viability, T/C [25]: 79.7%; viability, T/C [26]: 77.2%; viability, T/C [27]: 76.9%; viability, T/C [28]: 99.2%; viability, T/C [29]: 94.6%; viability, T/C [30]: 43.7%; viability, T/C [31]: 34%; viability, T/C [32]: 35.8%; viability, T/C [33]: 27.1%; viability, T/C [34]: 34.1%; viability, T/C [35]: 18%
Cn1nccc1Nc1nccc(-c2cc3c(s2)C(C)(C)N(CCN2CCOCC2)C3=O)n1 + COc1cc2nc(C)nc(NC(C)c3cc(N)cc(C(F)(F)F)c3)c2cc1OC1CCOC1	> 10	> 10	> 10	6.16	< 0.0316	88.5	111	96.4	85.5	79.6	64.8	86.5	111	103	81.9	71.2	57.7	79.1	111	99.6	viability, T/C [21]: 82.2%; viability, T/C [22]: 65.4%; viability, T/C [23]: 56.1%; viability, T/C [24]: 83.6%; viability, T/C [25]: 110%; viability, T/C [26]: 94.8%; viability, T/C [27]: 73.7%; viability, T/C [28]: 55.9%; viability, T/C [29]: 45.8%; viability, T/C [30]: 26.8%; viability, T/C [31]: 30%; viability, T/C [32]: 16%; viability, T/C [33]: 14.1%; viability, T/C [34]: 6.82%; viability, T/C [35]: 3.23%
